ChEMBL document CHEMBL1142249, “Identification and optimization of a novel series of [2.2.1]-oxabicyclo imide-based androgen receptor antagonists” (Bioorg Med Chem Lett, 2008)

Key:
Androgen receptor [1] = biological target: T1, Androgen receptor (Homo sapiens, UniProt P10275)
T1 sequence (P10275 whole entry): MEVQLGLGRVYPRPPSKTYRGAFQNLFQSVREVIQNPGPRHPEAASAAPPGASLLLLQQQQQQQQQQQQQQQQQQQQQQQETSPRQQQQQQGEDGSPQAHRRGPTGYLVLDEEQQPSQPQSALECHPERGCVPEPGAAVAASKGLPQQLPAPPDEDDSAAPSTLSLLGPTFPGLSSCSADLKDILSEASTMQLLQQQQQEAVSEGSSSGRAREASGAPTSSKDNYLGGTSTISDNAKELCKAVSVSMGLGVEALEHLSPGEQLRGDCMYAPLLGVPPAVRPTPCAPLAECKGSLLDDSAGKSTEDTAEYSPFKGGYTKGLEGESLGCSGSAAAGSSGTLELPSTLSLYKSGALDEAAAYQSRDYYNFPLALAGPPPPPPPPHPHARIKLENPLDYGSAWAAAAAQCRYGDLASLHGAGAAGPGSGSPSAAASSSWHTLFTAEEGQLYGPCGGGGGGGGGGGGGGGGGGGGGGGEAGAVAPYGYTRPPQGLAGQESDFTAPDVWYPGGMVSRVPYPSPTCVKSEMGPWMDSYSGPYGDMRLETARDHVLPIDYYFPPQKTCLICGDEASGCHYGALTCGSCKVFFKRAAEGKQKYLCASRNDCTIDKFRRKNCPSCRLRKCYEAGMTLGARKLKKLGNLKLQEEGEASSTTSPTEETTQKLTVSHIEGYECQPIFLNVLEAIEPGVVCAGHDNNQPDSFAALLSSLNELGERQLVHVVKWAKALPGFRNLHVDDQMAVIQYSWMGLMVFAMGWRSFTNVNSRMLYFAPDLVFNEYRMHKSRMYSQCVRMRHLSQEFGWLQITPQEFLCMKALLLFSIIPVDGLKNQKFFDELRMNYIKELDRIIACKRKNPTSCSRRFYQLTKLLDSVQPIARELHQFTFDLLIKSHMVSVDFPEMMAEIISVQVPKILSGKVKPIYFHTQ
Description: Antagonist activity at human androgen receptor in MDA453 cells by alkaline phosphatase reporter gene assay

Androgen receptor [2] = biological target: T1, Androgen receptor; experiment: Displacement of [3H]DHT from human androgen receptor in MDA453 cells
[3] = Drug level in human CWR22R cells xenografted mouse plasma at 50 mg/kg, po after 24 hrs on day 60; type: ADME, organism-based; set-up: dose 50 mg/kg, route oral; conditions: read-out: Drug uptake
[4] = Cmax in BALB/c mouse at 1.0 mmol/kg, po; type: ADME, organism-based; set-up: dose 1 mmol/kg, route oral; conditions: in vivo
[5] = AUC (0 to 6 hrs) in BALB/c mouse at 1.0 mmol/kg, po; type: ADME, organism-based; set-up: dose 1 mmol/kg, time < 6 hr, route oral; conditions: plasma
[6] = Drug level in human CWR22R cells xenografted mouse plasma at 50 mg/kg, po after 1 hr on day 60; type: ADME, organism-based; set-up: dose 50 mg/kg, route oral; conditions: read-out: Drug uptake
[7] = Tmax in BALB/c mouse at 1.0 mmol/kg, po; type: ADME, organism-based; conditions: in vivo
Liver microsomes = experiment: Metabolic stability in human liver microsome assessed per milligram of protein; type: ADME
[8] = Drug level in human CWR22R cells xenografted mouse plasma at 90 mg/kg, po after 24 hrs on day 60; type: ADME, organism-based; set-up: dose 90 mg/kg, route oral; conditions: read-out: Drug uptake
[9] = Drug level in human CWR22R cells xenografted mouse plasma at 10 mg/kg, po after 1 hr on day 60; type: ADME, organism-based; set-up: dose 10 mg/kg, route oral; conditions: read-out: Drug uptake
[10] = Drug level in human CWR22R cells xenografted mouse plasma at 10 mg/kg, po after 24 hrs on day 60; type: ADME, organism-based; set-up: dose 10 mg/kg, route oral; conditions: read-out: Drug uptake
[11] = Drug level in human CWR22R cells xenografted mouse plasma at 90 mg/kg, po after 1 hr on day 60; type: ADME, organism-based; set-up: dose 90 mg/kg, route oral; conditions: read-out: Drug uptake

Structure (SMILES)	IC50 (Androgen receptor [1])	Ki (Androgen receptor [2])	other results
O=C1[C@@H]2C3CCC(O3)[C@@H]2C(=O)N1c1ccc(Br)c2ccccc12	670 nM	53 nM	
CC(O)(CS(=O)(=O)c1ccc(F)cc1)C(=O)Nc1ccc(C#N)c(C(F)(F)F)c1 (centres undefined) [BICALUTAMIDE]			concentration at 24 h [3]: 86 µM; Cmax [4]: 110 µM; AUC(0-t) at 6 h [5]: 786 µM·h; concentration at 1 h [6]: 48.5 µM; Tmax [7]: 30 min
CC12CCC(C)(O1)[C@H]1C(=O)N(c3c(N)ccc4ncsc34)C(=O)[C@H]12	120 nM	17 nM	
CC12CCC(C)(O1)[C@H]1C(=O)N(c3cnc(C#N)c(Cl)c3)C(=O)[C@H]12	38 nM	4 nM	
CC12CCC(O1)[C@H]1C(=O)N(c3cccc(C(F)(F)F)c3)C(=O)[C@H]12 (some centres undefined)	343 nM	410 nM	
CC12CCC(C)(O1)[C@H]1C(=O)N(c3ccc(C#N)c(I)c3)C(=O)[C@H]12	7 nM	1 nM	Stability (Liver microsomes): 0.8 mmol/min/mg
CC12CCC(C)(O1)[C@H]1C(=O)N(c3ccc(C#N)c4nsnc34)C(=O)[C@H]12	16 nM	3 nM	
O=C1[C@H]2C3CCC(C3)N2C(=O)N1c1cccc(C(F)(F)F)c1 (some centres undefined)	130 nM	21 nM	Cmax [4]: 1.74 µM; AUC(0-t) at 6 h [5]: 11.4 µM·h; Tmax [7]: 30 min
COc1cc(N2C(=O)[C@@H]3[C@H](C2=O)C2(C)CCC3(C)O2)ccc1-c1cnco1	20 nM	12 nM	
O=C1[C@@H]2C3CCC(O3)[C@@H]2C(=O)N1c1ccc(I)c(Cl)c1	350 nM	221 nM	
Cc1cc(N2C(=O)[C@@H]3C4CCC(O4)[C@@H]3C2=O)ccc1Cl	500 nM	77 nM	
CC12CCC(C)(O1)[C@H]1C(=O)N(c3ccc([N+](=O)[O-])c(C(F)(F)F)c3)C(=O)[C@H]12	11 nM	17 nM	
CC12CCC(C)(O1)[C@H]1C(=O)N(c3ccc(C#N)n4nccc34)C(=O)[C@H]12	88 nM	18 nM	
O=C1[C@@H]2C3CCC(O3)[C@@H]2C(=O)N1c1ccc(Cl)c(C(F)(F)F)c1	3310 nM	1110 nM	
CC12C[C@H](O)C(C)(O1)[C@@H]1C(=O)N(c3ccc(C#N)c(I)c3)C(=O)[C@@H]12 (some centres undefined)	10 nM	7.18 nM	concentration at 24 h [8]: 23.6 µM; concentration at 1 h [9]: 26 µM; concentration at 24 h [10]: 8 µM; concentration at 1 h [11]: 55.5 µM; Stability (Liver microsomes): 0.001 mmol/min/mg
CSc1cc(N2C(=O)[C@@H]3[C@H](C2=O)C2(C)CCC3(C)O2)ccc1C#N	19 nM	3 nM	
CC(C)(C)OC(=O)N1CC2CC1[C@@H]1C(=O)N(c3ccc(C#N)c(C(F)(F)F)c3)C(=O)N21 (some centres undefined)	774 nM	40 nM	
CC12C[C@@H](O)C(C)(O1)[C@H]1C(=O)N(c3ccc(C#N)c(I)c3)C(=O)[C@H]12 (some centres undefined)	19 nM	2.41 nM	Stability (Liver microsomes): 0.04 mmol/min/mg
O=C1[C@@H]2C3CCC(O3)[C@@H]2C(=O)N1c1ccc(Cl)c(Cl)c1	480 nM	377 nM	
O=C1[C@@H]2C3CCC(O3)[C@@H]2C(=O)N1c1cccc(C(F)(F)F)c1	11500 nM	4100 nM	
CC12CCC(C)(O1)[C@H]1C(=O)N(c3cccc(C(F)(F)F)c3)C(=O)[C@H]12	36 nM	41 nM	
CC12CCC(C)(O1)[C@H]1C(=O)N(c3ccc([N+](=O)[O-])c4c(Br)cccc34)C(=O)[C@H]12	40 nM	17 nM	
CC12CCC(C)(O1)[C@H]1C(=O)N(c3ccc(C#N)c(C(F)(F)F)c3)C(=O)[C@H]12	7 nM	17 nM	
CC12CCC(C)(O1)[C@H]1C(=O)N(c3cc(Cl)cc(Cl)c3)C(=O)[C@H]12	16 nM	3 nM	
O=C1[C@@H]2C3CCC(C3)[C@@H]2C(=O)N1c1cccc(C(F)(F)F)c1	152 nM	360 nM	Cmax [4]: 0.023 µM; AUC(0-t) at 6 h [5]: 0.056 µM·h; Tmax [7]: 30 min
N#Cc1ccc(N2C(=O)[C@@H]3C4CCC(O4)[C@@H]3C2=O)cc1C(F)(F)F	2860 nM	1170 nM	
Cc1ccc(N2C(=O)[C@@H]3C4CCC(O4)[C@@H]3C2=O)cc1Cl	2290 nM	486 nM	
O=C1[C@@H]2C3CCC(O3)[C@@H]2C(=O)N1c1ccc(Cl)c([N+](=O)[O-])c1	1150 nM	692 nM	
O=C1[C@@H]2C3CCC(O3)[C@@H]2C(=O)N1c1ccc([N+](=O)[O-])c2ccccc12	> 5000 nM	3 nM	Cmax [4]: 100 µM; AUC(0-t) at 6 h [5]: 11.4 µM·h; Tmax [7]: 30 min
CC12CCC(C)(O1)[C@H]1C(=O)N(c3c(N)ccc4nccn34)C(=O)[C@H]12	70 nM	27 nM	
